Values after ≈ are worked out from the molar mass of the structure shown. Counter-ions that a name gives are not always drawn. Like-named read-outs stand apart in the source and are kept apart here.
Legend:
[1] = in vitro
Procedure: (§5) Briefly, fresh erythrocytes were centrifuged for 5 min at 1600 rpm for at least thrice in PBS and then the remaining pellet was re-suspended in PBS at 2% hematocrit. One hundred microlitres of this suspended pellet was added to 96-well sterile culture plate having test compounds at different desired concentrations. PBS alone (for baseline values) and 0.4% Triton X-100 in PBS (for 100% haemolysis) were employed as controls. After keeping at 37 °C for 3 h, the test samples were centrifuged and the supernatant was used for determination of the haemolytic activity quantified in terms of haemoglobin release as monitored spectrophotometrically by taking absorbance at 415 nm [33]. The experiment was done in triplicate and the mean ± SD was calculated [33, 34]. %Haemolysis=[Absorbanceofsample415nm-Absorbanceofblanksample415nm/Absorbanceofpositivecontrol415nm]∗100

[2] = system: P. falciparum chloroquine resistant strain (RKL-9); assay: WHO Mark III schizont maturation inhibition assay, chloroquine resistant strain; assay type: cell-based, Plasmodium falciparum; settings: for IC50: read-out: P. falciparum Chloroquine^R Strain (RKL-9) IC50; for IC90: read-out: P. falciparum Chloroquine^R Strain (RKL-9) IC90; for Selective index (SI) P.falciparum chloroquine^R (RKL-9): SI = CC50 (HeLa)/IC50 (RKL-9); for Resistance Index (RI) IC50 (RKL-9)/IC50 (MRC-2): ratio of IC50 resistant / sensitive strain
Procedure: (§1) These strains were perpetuated in vitro in continuous culture according to the method of Trager and Jensen with slight modifications. Briefly, both sensitive and resistant strains of P. falciparum were maintained in A+ erythrocytes in RPMI-1640 medium (having glutamine, but without any sodium bicarbonate) comprising 1.00 g of dextrose, 5.94 g of HEPES buffer, 40.00 mg of gentamycin. Additionally supplemented with 5% sodium bicarbonate and 10% (v/v) inactivated human AB+ serum then incubated in gas mixture of 5% CO2, 5% O2 and 90% N2 at 37 °C. Parasitized erythrocytes at initial 5% haematocrit were suspended in above mentioned culture medium and parasitaemia was regularly checked to maintain level between 2 and 4% with further sub-culturing for parasitaemia beyond 5%. Growth and multiplication of parasite was monitored by microscopy using Giemsa-stained slides.
(§2) To obtain ring stages of the parasite, the cultures were synchronized using D-sorbitol. The cultures, with majority of ring stages, were treated with equal volume of aqueous 5% D-sorbitol for 5 min and then after centrifugation pellet were suspended in complete medium and fresh erythrocytes synchronized culture with 1% parasitaemia and 5% haematocrit were used for compound concentration response assay.
(§3) The concentration of each test compound needed to hinder multiplication of parasites by 50% (IC50) against P. falciparum strains were obtained through concentration response assay performed in 96-well sterile tissue culture plates. Synchronized parasite cultures were applied to different doses of each compound. Dilutions were performed in gentamycin-free culture medium, and incubated at 37 °C having gaseous mixture (5% CO2, 5% O2 and 90% N2) supply for 24 h. The results were expressed as IC50 values computed from HN-NonLin Regression analysis, as well as mean percentage inhibition ± standard error examined by thick smear Giemsa stained slides. %ParasiteInhibition29,30=100-TotalnumberofSchizontsintestwells/TotalnumberofSchizontsincontrolwell∗100
(§4) Parasite at ring stage was used for compound concentration response assay with parasitaemia of 1% at 5% haematocrit. […] The IC50 and IC90 values of all compounds were determined and the resistance index between the two sensitive and resistant strains was calculated (Table 2). […] The percentage inhibition in schizont maturation was also calculated after incubation of ring stage P. falciparum till 24 h at the same range of drug concentrations (Table 3).

[3] = MTT cytotoxicity / cell viability assay; settings: human, HeLa cells
Procedure: (§6) Cytotoxicity of the compounds on mammalian cells were accomplished employing HeLa cell line (NCCS, Pune) cultured in DMEM supplemented with 10% FBS by the MTT (3-(4,5-dimethylthiazol-2-yl)-2,5-diphenyltetrazolium bromide) microenzymatic method with certain modifications [32]. Briefly, cells (10^4 cells/200 μL/well) were seeded into 96-well flat-bottom sterile tissue culture plates in complete medium. After 24 h of seeding, the test compounds at different dilutions were added and kept for another 24 h in a humidified chamber with 5% CO2 at 37 °C. Twenty microlitres of MTT (5.00 mg/mL in 1XPBS) stock solution were pipetted into each well, mixed and incubated for at least 3–4 h. After incubation, the plates were centrifuged at 1500 rpm for 5 min. The supernatant was disposed cautiously and 100 μL of DMSO were added to each well to lyse the cell and dissolve the insoluble purple formazan product into a coloured solution. Absorbance was taken at 570 nm to determine formazan formation as a measurement of cell viability. Experiments were performed in triplicate.

[4] = system: P. falciparum chloroquine sensitive strain (MRC-2); assay: microbe, parasite or virus in culture; settings: for % Schizont maturation inhibition ± SD (MRC-2): Conc. = 6.25 μg/mL; for % Schizont maturation inhibition ± SD (MRC-2) / P. falciparum Chloroquine^s Strain (MRC-2) IC50 / P. falciparum Chloroquine^s Strain (MRC-2) IC90: 24 h; for Selective index (SI) P.falciparum chloroquine^s (MRC-2): SI = CC50 (HeLa)/IC50 (MRC-2); for P. falciparum Chloroquine^s Strain (MRC-2) IC50 / P. falciparum Chloroquine^s Strain (MRC-2) IC90: schizont maturation, ring stage
Procedure: as §1, §2, §3, §4

[5] = system: HeLa cell line
Procedure: as §6

[6] = system: haemozoin (β-haematin) production in P. falciparum cultures; assay: Haemozoin inhibition assay in P. falciparum cultures; assay type: cell-based, Plasmodium falciparum; settings: drug near IC50 concentration, 48 h; untreated control 547.61 ± 9.52
Procedure: Briefly, the test cultures were centrifuged for 5–10 min at 1300 rpm to dispose of the culture medium. Infected erythrocyte pellet (mingled of β-haematin and erythrocyte membrane) were exposed to 0.01% saponin lysis for 10 min at 25 °C to lyse erythrocyte to release parasites. […] The haemozoin content was quantified by taking the absorbance at 400 nm and using a standard curve prepared from β-haematin. The amount of haemozoin formed in relation to control was calculated. All assays were performed in triplicate.

[7] = system: HeLa cell line; assay: MTT cytotoxicity / cell viability assay; settings: MTT, 24 h, not in table head
Procedure: as §6

[8] = system: normal erythrocytes; assay: Haemolysis assay on normal erythrocytes; settings: Conc. = 12.5 μg/mL, 3 h, 37 °C
Procedure: as §5

[9] = system: Plasmodium; settings: comparison value, reference not given; cited from earlier work
[10] = Plasmodium falciparum, artemisinin, unit ng/mL
[11] = schizont maturation, 24 h, ring stage
[12] = Plasmodium falciparum, schizont maturation, 24 h, ring stage

Row | Compound | Selective index (SI) P.falciparum chloroquine^R (RKL-9) [2] | % Schizont maturation inhibition ± SD (RKL-9) ([2]; Conc. = 6.25 μg/mL, 24 h) | Resistance Index (RI) IC50 (RKL-9)/IC50 (MRC-2) [2] | P. falciparum Chloroquine^R Strain (RKL-9) IC50 [2, 11] | P. falciparum Chloroquine^R Strain (RKL-9) IC90 [2, 11] | % Schizont maturation inhibition ± SD (MRC-2) [4] | Selective index (SI) P.falciparum chloroquine^s (MRC-2) [4] | P. falciparum Chloroquine^s Strain (MRC-2) IC50 [4] | P. falciparum Chloroquine^s Strain (MRC-2) IC90 [4] | HeLa Cell CC50 [5] | further results
1 | C[C@@H]1CC[C@H]2[C@@H](C)C(=O)O[C@@H]3O[C@@]4(C)CC[C@@H]1[C@]32OO4 [ART, artemisinin, reference compound] | 327.4 | – | – | – | – | – | – | – | – | – | hemolysis at 3 h, 12.5 ng/mL [1]: 1.94 ± 0.026%; IC50 [2, 10]: 0.15 ng/mL (≈ 0.531 nM); IC90 [2, 10]: 0.15 ng/mL (≈ 0.531 nM); inhibition at 0.00625 µg/mL ([2]; Plasmodium falciparum, artemisinin, Conc. = 6.25 ng/mL, 24 h, read-out: % Schizont maturation inhibition ± SD (RKL-9)): 87.9 ± 2.12%; CC50 at 24 h [3]: 0.0491 µg/mL (≈ 174 nM); viability at 24 h, 12.5 ng/mL [3]: 58.92 ± 0.06%
2 | COc1cc(OC)c(C(=O)/C=C/c2ccc(OC)c(OC)c2)c(OC)c1 [Chalcone 1] | 18.96 | 49.66 ± 25.46% | 0.68 | 0.23 µg/mL | 1.42 µg/mL | 82.43 ± 20.51% | 12.82 | 0.34 µg/mL | 5.54 µg/mL | 4.36 µg/mL | –
3 | COc1ccc(C=CC(=O)c2cc(OC)ccc2OC)cc1 [Chalcone 2] | 7.57 | 58.02 ± 21.21% | 1.08 | 0.14 µg/mL | 0.36 µg/mL | 71.76 ± 10.61% | 8.15 | 0.13 µg/mL | 0.51 µg/mL | 1.06 µg/mL | Amount of haemozoin production [6]: 464.28 ± 11.9 ng/mL
4 | COc1ccc(OC)c(C(=O)C=Cc2ccc3c(c2)OCO3)c1 [Chalcone 3] | 26.86 | 63.71 ± 2.83% | 1.71 | 0.29 µg/mL | 1.15 µg/mL | 59.26 ± 4.95% | 45.82 | 0.17 µg/mL | 0.75 µg/mL | 7.79 µg/mL | –
5 | COc1cc(C(=O)C=Cc2ccc(F)cc2)cc(OC)c1OC [Chalcone 4] | 1.65 | 57.69 ± 7.78% | 3.40 | 0.51 µg/mL | 2.26 µg/mL | 47.48 ± 17.68% | 5.60 | 0.15 µg/mL | 0.40 µg/mL | 0.84 µg/mL | –
6 | COc1cc(C(=O)C=Cc2ccc(N(C)C)cc2)cc(OC)c1OC [Chalcone 5] | 36.74 | 40 ± 20.51% | 1.43 | 0.23 µg/mL | 0.92 µg/mL | 58.65 ± 7.78% | 52.81 | 0.16 µg/mL | 1.08 µg/mL | 8.45 µg/mL | –
7 | COc1ccc(/C=C/C(=O)c2cc(OC)c(OC)c(OC)c2)cc1 [Chalcone 6] | 8.74 | 43.85 ± 33.23% | 0.54 | 0.19 µg/mL | 0.98 µg/mL | 51.05 ± 42.42% | 4.74 | 0.35 µg/mL | 5.23 µg/mL | 1.66 µg/mL | Amount of haemozoin production [6]: 457.14 ± 38.09 ng/mL
8 | COc1ccc(/C=C/C(=O)c2cc(OC)c(OC)c(OC)c2)cc1OC [Chalcone 7] | 85.05 | 85.82 ± 6.36% | 1.64 | 0.18 µg/mL | 0.67 µg/mL | 94.24 ± 2.21% | 139.18 | 0.11 µg/mL | 0.46 µg/mL | – | Amount of haemozoin production [6]: 385.71 ± 4.76 ng/mL
9 | COc1cc(C(=O)/C=C/c2ccc3c(c2)OCO3)cc(OC)c1OC [Chalcone 8] | 8.46 | 77.78 ± 1.41% | 0.90 | 0.26 µg/mL | 5.31 µg/mL | 75.17 ± 12.02% | 7.59 | 0.29 µg/mL | 1.01 µg/mL | 2.20 µg/mL | –
10 | O=C(/C=C/c1cc2ccccc2[nH]1)c1ccc(Cl)cc1 [Chalcone 9] | 7.85 | 48.87 ± 25.46% | 0.84 | 0.21 µg/mL | 0.95 µg/mL | 50.32 ± 33.23% | 6.60 | 0.25 µg/mL | 0.96 µg/mL | – | HeLa Cell CC50 [7]: 1.65 µg/mL; % Hemolysis ± SD [8]: 1.30 ± 0.009%
11 | O=C(/C=C/c1cc2ccccc2[nH]1)c1ccc(I)cc1 [Chalcone 10] | 9.90 | 49.62 ± 19.79% | 0.95 | 0.19 µg/mL | 0.81 µg/mL | 64.44 ± 9.90% | 9.40 | 0.20 µg/mL | 0.89 µg/mL | 1.88 µg/mL | –
12 | C=C[C@H]1C[N@@]2CC[C@H]1C[C@H]2[C@H](O)c1ccnc2ccc(OC)cc12 [QNN, quinine hydrochloride, reference compound] | 121.24 | – | – | – | – | – | – | – | – | – | hemolysis at 3 h, 12.5 μg/mL [1]: 2.16 ± 0.035%; IC50 [2, 12]: 250 ng/mL; IC90 [2, 12]: 1590 ng/mL; inhibition at 6.25 µg/mL ([2]; Plasmodium falciparum, Conc. = 6.25 μg/mL, 24 h, read-out: % Schizont maturation inhibition ± SD (RKL-9)): 71.9 ± 16.3%; CC50 at 24 h [3]: 30.3 µg/mL; viability at 24 h, 12.5 µg/mL [3]: 62.62 ± 0.06%
13 | C=CC(C)(C)c1cc(/C=C/C(=O)c2ccc(O)cc2)c(OC)cc1O [licochalcone] | – | – | – | – | – | – | – | – | – | – | IC50 of licochalcone [9]: 1.43 µg/mL

— publication PMC6916019, “In vitro anti-malarial efficacy of chalcones: cytotoxicity profile, mechanism of action and their effect on erythrocytes” (Malaria Journal, 2019)
